The record followed here is US20230399325A1, “SUCCINATE AND CRYSTAL FORM THEREOF AS THERAPEUTICS” (AUCENTRA THERAPEUTICS PTY LTD, priority 2020, published 2023).

Data set [1] can be described thus: Dynamic solubility in water and FaSSIF at 37° C. The data set is classed as physicochemical. The settings on record: for solubility at 1 h / solubility at 2 h / solubility at 4 h / solubility at 24 h: thermodynamic from solid, read-out: S: Solubility; for solubility compared to Compound A free base: both FaSSIF and water.
Data set [2] is described as follows: Hygroscopicity by dynamic moisture adsorption (DVS). The data set is classed as physicochemical. The settings on record: for Hygroscopicity: 25° C./80% RH. How it is done:
Dynamic moisture adsorption (DVS) was used to evaluate the hygroscopicity of compound A and salt forms under the condition of 25° C. and 80% RH.

A short description of data set [3]: Pharmacokinetic study of Compound A in male cynomolgus monkeys. The data set is classed as in vivo. How it is done:
Two groups of male cynomolgus monkeys (n=3 per group) were given Compound A by a single intravenous injection (i.v.) of 5 mg/kg, or intragastric administration (i.g.) of 50 mg/kg. Blood samples were collected at different time points. The exposure of Compound A in plasma samples were measured by LC-MS/MS method, and PK parameters (Table 8) were calculated using Phoenix WinNonlin 8.0 software.

Data set [4] is described as follows: Solid-state stability, 14 days, HPLC. In kind it is physicochemical. How it is done: Compound A salts and Compound A were tested for their solid-state stability under the conditions of 25° C./60% RH and 40° C./75% RH.
For data set [5], the system named is A2780 ovarian cancer cells. The experiment in a line: Subcutaneous A2780 ovarian cancer xenograft. The data set is classed as in vivo, female BALB/c nude mice. The settings on record: 75 mg/kg orally once a day. How it is done: Compound A succinate was also assessed for in vivo anti-tumor activity in subcutaneous xenografts. Briefly, female BALB/c nude mice were inoculated with A2780 ovarian cancer cells; when the mean tumour volume reached 150-200 mm^3, animals were randomized to groups. The animals (n=8 per group) were treated orally with vehicle (ultra-pure water), Compound A succinate (62.5, 125 or 250 mg/kg), or Palbociclib (75 mg/kg) once a day for 14 consecutive days. Mice were observed daily for signs of toxicity and weight loss, and tumour volume measured every other day. […] Palbociclib was efficacious at 75 mg/kg, resulting in T/C of 42.8% (Table 6).

Data set [6] relates to COLO 205 colorectal tumor xenograft. The experiment in a line: COLO 205 colorectal tumor xenograft. The data set is classed as in vivo, mice. Conditions: 15 mg/kg intraperitoneally. How it is done: A separate study of Compound A succinate was conducted in COLO 205 colorectal tumor xenograft. The tumor-bearing mice (n=8) were treated orally with vehicle (ultra-pure water), or Compound A succinate (50 or 100 mg/kg) once daily for 21 days. As a positive control chemotherapy 5-FU (15 mg/kg) was given intraperitoneally. […] 5-FU was also effective with a T/C=47.2% (Table 7).

The mark [7] stands for this setting: cynomolgus monkey, plasma, iv, i.v. 5 mg/kg.
Setting [8] is: cynomolgus monkey, plasma, po, i.g. 50 mg/kg.

Converted amounts (≈) assume the structure as drawn. “And” between values parts separate entries of the source, which are not always exact repeats. Identical values can stand only once. Like-named read-outs stand apart in the source and are kept apart here.

One may read the solubility as the concentration that dissolves in the medium under given conditions. Broadly, the AUC(0-inf) is total exposure, with the tail of the curve extrapolated. Usually AUC(0-t) stands for the area under the concentration-time curve up to a stated or last time point. Read a high AUC(0-t) as more exposure. For orientation: Cmax means the highest concentration seen after dosing. The Vd is the apparent volume that relates the amount in the body to the concentration in plasma or blood. High values mean extensive tissue distribution, low ones confinement near the circulation. What is called clearance is a measure of how efficiently the substance is removed, as volume per time. As usually defined, the half-life is how long it takes for the measured level to halve. A high value points to slow loss. Consider `CCN1CCN(Cc2ccc(Nc3ncc(F)c(-c4sc(NC5CCCC5)nc4C)n3)nc2)CC1` [Compound A, N-Cyclopentyl-5-(2-((5-((4-ethylpiperazin-1-yl)methyl)pyridin-2-yl)amino)-5-fluoropyrimidin-4-yl)-4-methylthiazol-2-amine], for which the solubility at 1 h in data set [1] (FaSSIF, 1 hour) came out at 270 µg/mL (≈ 544 µM). In data set [1] (FaSSIF, 2 hours), the solubility at 2 h came out at 280 µg/mL (≈ 564 µM). Further, the solubility at 4 h in data set [1] (FaSSIF, 4 hours) worked out at 240 µg/mL (≈ 483 µM). Also, the solubility at 24 h in data set [1] (FaSSIF, 24 hours) worked out at 200 µg/mL (≈ 403 µM). For the same compound, the solubility at 1 h in data set [1] (water, H2O, 1 hour) amounted to 220 µg/mL (≈ 443 µM). Besides, the solubility at 2 h in data set [1] (water, H2O, 2 hours) was determined as 240 µg/mL (≈ 483 µM). Also, in data set [1] (water, H2O, 4 hours), the solubility at 4 h is 240 µg/mL (≈ 483 µM). Also, the solubility at 24 h in data set [1] (water, H2O, 24 hours) amounted to 220 µg/mL (≈ 443 µM). Moreover, in data set [2], the “Moisture absorbed at 25° C./80% RH” value was 1.4% and the Hygroscopicity result was “Slightly hygroscopic”. Besides, in data set [3] (setting [7]), the area under the curve AUC(0-inf) amounted to 4560 ng·h/mL, the exposure AUC(0-t) amounted to 4190 ng·h/mL, the Cmax is 447 ng/mL and the Vd was determined as 9.8 L/kg. Besides, in data set [3] (setting [7]), the clearance turned out to be 19.4 mL/min/kg and the half-life is 6.5 h. In data set [3] (setting [8]), this compound had a peak concentration (Cmax) of 643 ng/mL and a half-life of 8.3 h. In addition, in data set [3] (i.g. 50 mg/kg), the F was 21.8%. Also, in data set [4] (25° C./60% RH), the Purity amounted to 97.6 area % and the Relative purity is 100.0 % of initial. Also, in data set [4] (40° C./75% RH), the Purity is reported as 97.6 area % and the Relative purity is reported as 100.1 % of initial.

Take `CCN1CCN(Cc2ccc(Nc3ncc(F)c(-c4sc(NC5CCCC5)nc4C)n3)nc2)CC1.O=P(O)(O)O` [Compound A phosphate]: the “S: Solubility” value in data set [1] (FaSSIF, 1 hour) is 1700 µg/mL; in data set [1] (FaSSIF, 2 hours) it was 670 µg/mL; in data set [1] (FaSSIF, 4 hours) it was 470 µg/mL; in data set [1] (FaSSIF, 24 hours) it was 330 µg/mL; in data set [1] (H2O, 1 hour), 450 µg/mL; in data set [1] (H2O, 2 hours), 410 µg/mL. The “S: Solubility” value in data set [1] (H2O, 4 hours) is 440 µg/mL; in data set [1] (H2O, 24 hours), 360 µg/mL. Further, in data set [2], the “Moisture absorbed at 25° C./80% RH” value is recorded as 3.7%. Also, the Hygroscopicity entry in data set [2] is on record as “Hygroscopic”. The Purity came out at 98.3 area % in data set [4] (25° C./60% RH) and 98.2 area % in data set [4] (40° C./75% RH). Besides, the results for the Relative purity in data set [4] (25° C./60% RH) and in data set [4] (40° C./75% RH) were 100.0 % of initial and 99.9 % of initial, respectively.

Regarding `CC(=O)c1c(C)c2cnc(Nc3ccc(N4CCNCC4)cn3)nc2n(C2CCCC2)c1=O` [Palbociclib, reference compound], the “Tumor volume (±S)” value in data set [5] (14 days) is 1850.1 ± 121.1 mm^3. The “Mean tumor growth inhibition (T/C)” value in data set [5] (day 14) is 42.8% and 42.79%.

On to `CCN1CCN(Cc2ccc(Nc3ncc(F)c(-c4sc(NC5CCCC5)nc4C)n3)nc2)CC1.Cl` [Compound A hydrochloride], for which the “S: Solubility” value in data set [1] (FaSSIF, 1 hour) amounted to 2000 µg/mL; in data set [1] (FaSSIF, 2 hours), 2000 µg/mL; in data set [1] (FaSSIF, 4 hours) it was 2200 µg/mL; in data set [1] (FaSSIF, 24 hours), 2100 µg/mL; in data set [1] (H2O, 1 hour) it was 6800 µg/mL; in data set [1] (H2O, 2 hours) it was 7100 µg/mL. Further, the “S: Solubility” value was 7200 µg/mL in data set [1] (H2O, 4 hours) and 6800 µg/mL in data set [1] (H2O, 24 hours). In addition, in data set [1], the “solubility compared to Compound A free base” value was “significantly increased”. Also, in data set [2], the “Moisture absorbed at 25° C./80% RH” value is listed as 3.4%. The Hygroscopicity result in data set [2] was “Hygroscopic”. Besides, the Purity worked out at 97.6 area % in data set [4] (25° C./60% RH) and 97.7 area % in data set [4] (40° C./75% RH). The figures for the Relative purity in data set [4] (25° C./60% RH) and in data set [4] (40° C./75% RH) were 99.9 % of initial and 100.0 % of initial, respectively.

In the case of `O=c1[nH]cc(F)c(=O)[nH]1` [Compound 5-FU, 5-FU, reference compound], in data set [6], the “Inhibition of tumor growth (T/C)” value turned out to be 47.2% and the “Tumor volume (±S)” value is listed as 799.62 ± 61.95 mm^3.

For the compound `CCN1CCN(Cc2ccc(Nc3ncc(F)c(-c4sc(NC5CCCC5)nc4C)n3)nc2)CC1.CS(=O)(=O)O` [Compound A mesylate], the “S: Solubility” value in data set [1] (FaSSIF, 1 hour) was determined as 8800 µg/mL; in data set [1] (FaSSIF, 2 hours) it was 8300 µg/mL; in data set [1] (FaSSIF, 4 hours), 8400 µg/mL; in data set [1] (FaSSIF, 24 hours), 4400 µg/mL; in data set [1] (H2O, 1 hour), 8200 µg/mL; in data set [1] (H2O, 2 hours), 8300 µg/mL. The “S: Solubility” value in data set [1] (H2O, 4 hours) was determined as 8600 µg/mL; in data set [1] (H2O, 24 hours), 8500 µg/mL. The “solubility compared to Compound A free base” value in data set [1] is “significantly increased”. Moreover, in data set [2], the “Moisture absorbed at 25° C./80% RH” value is 14.4%. In data set [2], the Hygroscopicity entry is “Extremely hygroscopic”. Besides, the values for the Purity in data set [4] (25° C./60% RH) and in data set [4] (40° C./75% RH) were 97.6 area % and 97.5 area %, respectively. Further, the figures for the Relative purity in data set [4] (25° C./60% RH) and in data set [4] (40° C./75% RH) were 100.1 % of initial and 100.0 % of initial, respectively.
